Reference: patent US12595252B2, “Inhibitors of SARM1” (DISARM THERAPEUTICS, INC., priority 2019, dated 2026)

Biological target: T1, SARM1 (Homo sapiens, UniProt Q6SZW1)
T1 construct: made in house; host or cells: NRK1-HEK293T cells, transiently transfected; clarified lysate used unpurified
T1 sequence (Q6SZW1 with tags, fused parts or gaps): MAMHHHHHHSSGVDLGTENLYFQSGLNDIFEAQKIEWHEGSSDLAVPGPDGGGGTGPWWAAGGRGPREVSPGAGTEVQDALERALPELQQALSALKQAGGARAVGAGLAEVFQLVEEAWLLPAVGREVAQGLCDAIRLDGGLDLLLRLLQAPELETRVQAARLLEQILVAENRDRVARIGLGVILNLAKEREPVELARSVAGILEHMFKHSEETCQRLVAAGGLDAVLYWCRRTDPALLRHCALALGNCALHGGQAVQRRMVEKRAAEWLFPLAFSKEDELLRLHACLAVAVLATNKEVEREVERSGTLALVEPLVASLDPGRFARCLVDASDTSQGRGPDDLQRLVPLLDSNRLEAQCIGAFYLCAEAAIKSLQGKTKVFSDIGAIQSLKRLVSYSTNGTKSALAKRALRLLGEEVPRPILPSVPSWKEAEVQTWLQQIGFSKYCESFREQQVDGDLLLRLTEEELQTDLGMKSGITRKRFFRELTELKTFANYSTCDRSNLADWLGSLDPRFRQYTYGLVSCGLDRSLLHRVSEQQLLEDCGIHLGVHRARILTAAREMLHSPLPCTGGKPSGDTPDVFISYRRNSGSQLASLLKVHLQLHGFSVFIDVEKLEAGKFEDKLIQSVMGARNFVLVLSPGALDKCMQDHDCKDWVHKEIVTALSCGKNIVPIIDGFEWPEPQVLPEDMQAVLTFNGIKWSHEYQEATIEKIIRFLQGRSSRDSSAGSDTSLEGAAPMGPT
Test: ARM-SAM-TIR SARM1 IC50 assay (NADase activity, NAD+ cleavage)
Format: biochemical
Details: ARM-SAM-TIR lysate 5 μg/mL from NRK1-HEK293T cells; 2 h pre-incubation; 5 μM NAD+; 2 hr room temperature; NAD+ and ADPR by RapidFire MS; read-out: SARM1 IC50
Experimental: This Example describes an assay of ARM-SAM-TIR NADase activity and use of this assay to measure the efficacy of compounds of Formula I to block SARM1 mediated NAD+ cleavage. This assay is optimized in such a way as to characterize the efficacy of the compounds in Formula I to inhibit SARM1 activity and to calculate an IC50 value for each compound. This assay makes use of full length SARM1, which encompasses the ARM, SAM and TIR domains.
NRK1-HEK293T cells were seeded onto 150 cm^2 plates at 20×10^6 cells per plate. The next day, the cells were transfected with 15 μg ARM-SAM-TIR expression plasmid, SEQ ID NO: 1.
The cultures were supplemented with 1 mM NR at time of transfection to minimize toxicity from ARM-SAM-TIR overexpression. Forty-eight hours after transfection, cells were harvested, pelleted by centrifugation at 1,000 rpm (Sorvall ST 16R centrifuge, Thermo Fisher), and washed once with cold PBS (0.01 M phosphate buffered saline NaCl 0.138 M; KCl 0.0027 M; pH 7.4). The cells were resuspended in PBS with protease inhibitors (cOmplete™ protease inhibitor cocktail, Roche product #11873580001) and cell lysates were prepared by sonication (Branson Sonifer 450, output=3, 20 episodes of stroke). The lysates were centrifuged (12,000×g for 10 min at 4° C.) to remove cell debris and the supernatants (containing ARM-SAM-TIR protein) were stored at −80° C. for later use in the in vitro ARM-SAM-TIR NADase assay (see below). Protein concentration was determined by the Bicinchoninic (BCA) method and used to normalize lysate concentrations.
The enzymatic assay was performed in a 384-well polypropylene plate in Dulbecco's PBS buffer in a final assay volume of 20 μL. ARM-SAM-TIR lysate with a final concentration of 5 μg/mL was pre-incubated with the respective compound at 1% DMSO final assay concentration over 2 h at room temperature. The reaction was initiated by addition of 5 μM final assay concentration of NAD+ as substrate. After a 2 hr room temperature incubation, the reaction was terminated with 40 μL of stop solution of 7.5% trichloroacetic acid in acetonitrile. The NAD+ and ADPR concentrations were analyzed by a RapidFire High Throughput Mass Spectrometry System (Agilent Technologies, Santa Clara, Calif.) using an API4000 triple quadrupole mass spectrometer (AB Sciex Framingham, Mass.).

| IC50 | SMILES |
| --- | --- |
| > 30 µM | COc1cncc(S(=O)(=O)NCc2ccccc2)c1 [Example 207] |
| > 30 µM | COc1cncc(N(C)S(=O)(=O)c2ccccc2)c1 [Example 208] |
| > 30 µM | COc1cncc(NS(=O)(=O)c2ccccc2)c1 [Example 209] |
| > 30 µM | COc1cncc(NCC2CCCOC2)n1 (stereo not drawn) [Example 210] |
| 5 to 15 µM | COc1cncc(NCc2cccc(S(N)(=O)=O)c2)n1 [Example 211] |
| > 30 µM | NC(=O)c1cncc(NCc2cccnc2)n1 [Example 212] |
| > 30 µM | CN(C)C(=O)c1cncc(NCc2cccnc2)n1 [Example 213] |
| > 30 µM | Cn1cc(CNc2cncc(O)n2)cn1 [Example 214] |
| > 30 µM | OCc1cncc(NCc2cccnc2)n1 [Example 215] |
| > 30 µM | COc1cncc(NCc2ccc(N3CCN(c4ccccc4)CC3)nc2)n1 [Example 216] |
| > 30 µM | CNc1ccnc(NC)n1 [Example 217] |
| > 30 µM | CNc1cncc(Br)n1 [Example 218] |
